According to US8293231B2, “Methods and compositions for treating ischemia” (Blue Blood Biotech Corp., priority 2005, dated 2012):

Experiments:
[1] = test system: human melanoma A2058 cells in Matrigel; assay: Effect of TMD23 on tumor neoangiogenesis; assay type: in vivo, athymic nude mice
Protocol: To assess TMD23 effects on tumor neoangiogenesis, 1×10^6 human melanoma A2058 cells (ATCC® CRL-11147) were mixed with Matrigel (0.5 mL) containing heparin (60 U/mL) and various concentrations of TMD23 and subcutaneously injected into athymic nude mice. Matrigel plugs were harvested after 18 days and frozen in liquid nitrogen. Blood vessels were detected by immunohistochemistry using anti-CD31 antibody as described above. Microvessel density (MVD) was calculated by counting six highly vascularized fields in each section (200× magnification; MetaMorph software).

[2] = test system: PAI activity in conditioned media of HUVECs; assay: Plasminogen activator inhibitor (PAI) activity assay; assay type: cell-based, human; conditions: 12 h; 100 or 1000 ng/mL TMD23, 70 ng/mL PMA, 10 ng/mL VEGF
Protocol: (§1) HUVECs were seeded at 80% confluence on 100-mm dishes in M199 medium. After 24 h, cells were rinsed with serum-free M199 twice and incubated in serum-free M199 with various concentrations of TMD23, VEGF (10 ng/mL), or PMA (70 ng/mL) for 12 h. The conditioned medium containing […] secreted proteins was analyzed by gelatin- and casein-based zymographies. The digested area appeared clear on a blue background, indicating the location of matrix metalloproteinase (MMP) activity. To further verify MMP caseinolytic activity, the casein-containing gel was incubated with incubation buffer containing 10 mM EDTA, an inhibitor of MMPs, to observe disappearance of the clear band. Plasminogen activator inhibitor (PAI) activity was measured by titrating samples with increasing amounts of tissue-type plasminogen activator (t-PA) (Boehringer Ingelheim) into a fixed volume of endothelial-cell-conditioned media.
as §1, with “zymographies. Lee O H, et al., Identification of angiogenic properties of insulin-like growth factor II in in vitro angiogenesis models. Brit J. Cancer. 2000; 82:385-391.” for “zymographies.”, “media. Shi G Y., et al., Plasmin and the regulation of tissue-type plasminogen activator biosynthesis in human endothelial cells. […]” for “media.”

[3] = test system: HUVECs; assay: Chemotaxis assay (Transwell); assay type: cell-based, human
Protocol: (§2) The chemotactic motility of HUVECs was assayed using Transwell (Costar) with 6.5-mm diameter polycarbonate filters (8-μm pore size). The lower filter surface was coated with 10 μg gelatin (Sigma-Aldrich). Various concentrations of TMD23 in the absence or presence of 10 μg/mL polyclonal rabbit anti-TMD23 antibody or 10 ng/mL vascular endothelial growth factor (VEGF) (R & D Systems, Inc.) in M199 were placed in the lower wells. One hundred mL cell suspension containing 1×10^5 cells was loaded into each of upper well. The chamber was incubated at 37° C. for 4 h. Cells were fixed with methanol and stained with 4′,6′-diamidino-2-phenylindole (DAPI). Chemotaxis was quantified with optical microscopy (Leica) at 100× magnification using MetaMorph imaging software (Universal Imaging Corporation) by counting the cells that migrated to the filter's lower side. Five random fields in each well were counted. Each sample was assayed in triplicate, and assays were repeated three times. To determine the role of extracellular signal-regulated kinase 1/2 (ERK1/2), p38 mitogen-activated protein kinase (MAPK), and phosphatidylinositol 3-kinase (PI3 kinase)-protein kinase B/Akt (Akt) in TMD23-mediated cell migration, assays were performed in the presence of U0126, a MAPK/ERK kinase (MEK) inhibitor, SB 203580, a p38 MAPK inhibitor, and LY 294002, a PI3 kinase inhibitor. Cell viability as determined by trypan blue staining was not altered by treatment. 00126 was purchased from Promega, with SB 203580 and LY 294002 from Calbiochem.
as §2, with “hundred μL” for “hundred mL”, “MAPK/ERK kinase-(MEK)” for “MAPK/ERK kinase (MEK)”, “treatment. U0126” for “treatment. 00126”

“TMD23: Recombinant human thrombomodulin fragment, amino acids Ala242-Ser515 of SEQ ID NO: 2: six EGF-like structures (D2) plus Ser/Thr-rich domain D3” was tested, and the “Blood vessels in Matrigel plugs (CD31 staining)” value ([1]; 18 days) was “significantly more blood vessels”, the “Weight of tumor contained in a Matrigel plug” value ([1]; FIG. 8A) was “increased the weight of tumor” and the “Microvessel density (MVD)” value ([1]; FIG. 8C) was “increased microvessel density”. For the same substance, the “Tumor size developed by Matrigel plugs containing A2058 cells” value ([1]; compared with A2058 cells alone, 18 days) was “bigger”, the “PAI activity in conditioned media of HUVECs” value [2] was “decreased significantly” and the “Effect on HUVEC migration compared with VEGF (10 ng/mL)” value ([3]; 10 ng/mL TMD23) was “comparable with that of VEGF”. For the same substance, the “Migratory activity increased over the control” value ([3]; 10 ng/mL TMD23, 4 h) was 80% and the “Chemotactic response in HUVECs” value ([3]; FIG. 2B) was “markedly induced a dose-dependent chemotactic response”.
